According to article PMC12302426, “Dihydrokoumine, a dual-target analgesic with reduced side effects isolated from a traditional Chinese medicine” (Journal of Advanced Research, 2024):

Assays:
C57BL/6 male mice = assay: Hot-plate assay (acute pain); format: in vivo; conditions: morphine 5 mg/kg i.p.
Experimental: The hot-plate test in mice was conducted following previously established method. Six-week-old C57BL/6 male mice were used in hot-plate assay (n = 6). Hot-plate response latency (55°C) after drug treatment was used to measure antinociceptive effect, where response was defined by the animal either by licking paws, flicking paws or jumping. Mice were exposed to the hot plate (Ugo Basile model 7280, Comerio, Italy) for a maximum of 20 s to avoid tissue damage. After three days’ baseline measure, mice were injected intraperitoneally (5 mL/kg) with the solvent mixture, morphine (5 mg/kg) or DK (20, 40 mg/kg) and latency was tested 0.5-, 1-, 2-, 3- and 4- hours post-administration. Evaluation of MOR agonistic and M3R antagonistic activity of DK, naloxone (2 mg/kg) and oxotremorine (0.4 mg/kg) were first injected intraperitoneally, immediately followed by the injection of morphine (5 mg/kg, evaluation of MOR) or DK (20 mg/kg).

M3R = target: T1, M3R (Homo sapiens, UniProt P20309); assay: Radioligand binding assay, [3H] NMS; conditions: [3H] NMS 0.2 nM
T1 construct: expressed in transfected cells; host or cells: HEK293 cell membranes
T1 sequence (P20309 whole entry): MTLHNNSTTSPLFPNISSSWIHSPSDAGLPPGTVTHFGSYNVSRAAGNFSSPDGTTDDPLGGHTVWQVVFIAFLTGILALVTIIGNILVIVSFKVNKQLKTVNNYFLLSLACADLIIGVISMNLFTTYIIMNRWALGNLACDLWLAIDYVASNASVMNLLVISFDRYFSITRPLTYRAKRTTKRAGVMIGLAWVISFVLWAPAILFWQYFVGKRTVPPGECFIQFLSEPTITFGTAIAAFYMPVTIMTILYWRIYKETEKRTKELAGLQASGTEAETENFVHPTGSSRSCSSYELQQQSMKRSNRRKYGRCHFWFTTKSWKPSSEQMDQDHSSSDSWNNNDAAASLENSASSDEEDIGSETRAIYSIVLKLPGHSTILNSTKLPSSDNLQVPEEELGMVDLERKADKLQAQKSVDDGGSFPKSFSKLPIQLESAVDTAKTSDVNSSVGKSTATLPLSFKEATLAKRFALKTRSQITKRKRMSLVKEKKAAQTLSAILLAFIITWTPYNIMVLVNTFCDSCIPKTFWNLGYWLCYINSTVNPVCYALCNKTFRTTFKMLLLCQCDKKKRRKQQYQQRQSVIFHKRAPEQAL
Experimental: Radioligand binding assays were conducted using MicroBeta2 (PerkinElmer, USA). Membrane protein preparations MOR and M3R were each prepared at a concentration of 2.5 µg/well. The radio ligands [^3H] DAMGO (specific for MOR) and [^3H]-NMS (specific for M3R) were prepared at concentrations of 0.5 nM and 0.2 nM, respectively. […] For each well, 1 µL of the serially diluted test compounds was transferred, followed by the addition of 100 µL of membrane stock solution and 100 µL of radioligand. The plates were sealed and shaken at 300 rpm at room temperature for one hour. Upon completion of the binding assay, the contents of each well were filtered through Unifilter-96 GF/C filter plates (PerkinElmer, USA). The filter plates were dried for one hour at 50°C and sealed. The trapped ^3H (tritium) on the filters was then quantified using the MicroBeta2. The percentage of inhibition or binding was subsequently calculated.

CN1CC[C@]23c4c5ccc(O)c4O[C@H]2[C@@H](O)C=C[C@H]3[C@H]1C5 [morphine, reference compound]
time course of antinociception (C57BL/6 male mice): largely reduced after one hour and even disappeared at 3 h

CN1[C@@H]2C[C@@H](OC(=O)[C@H](CO)c3ccccc3)C[C@H]1[C@@H]1O[C@@H]12 [scopolamine, reference compound]
efficacy (maximal inhibition of radioligand binding) (M3R): 100%
